Where “and” joins values, the source holds several entries; their conditions need not be identical. Equal values may be shown once. Entries after “also recorded” stand apart in the source; their conditions may differ. Read-outs that look alike come from different tables or passages of the source. Marks after values point to notes of the source that are not given here.
How the values were obtained:
involucrin (IVL) = test: 3D micro-epidermis model (EpiScreen): involucrin immunostaining; assay type: cell-based, human; conditions: for activation at 0.1 µM / activation at 1 µM: Homo sapiens, 72 h; for activation at 0.1 µM: 100 nM; for IVL expression: Table 1 summary
Protocol: (§1) To assess the effects of such therapy molecules on the epidermis, keratinocytes were grown in the presence of kinase inhibitors during 3 days with high calcium concentration to induce keratinocyte differentiation and generate a 3D-stratified differentiated epidermis. Drug impact on the epidermis development was assessed via different keratinocyte markers including: • Ki-67, an universally expressed protein among proliferating cells and absent in the quiescent cells; • Filaggrin, a filament-associated protein that binds to keratin fibers and is a marker of terminal differentiation; • Desmoglein-1, a component of desmosomes and differentiation marker expressed in all epidermal layer above the basal layer; and • Involucrin, an early differentiation marker expressed in the spinous and granular layers and a protein precursor of the epidermal cornified envelope.
(§2) Human epidermal keratinocytes cells (HPEKs) from a juvenile donor (CellnTec, Switzerland) are cultured in flasks in proliferation medium. Keratinocytes are seeded at passage 6 into EpiScreen™ (Abzena, Cambridge, UK) plates containing collagen 1 coated disc micropatterns (CYTOO, Grenoble, France). Four hours later, unattached cells are washed off and a high calcium medium is added to induce keratinocytes differentiation. The day after, keratinocytes are treated with screening compounds, and Trichostatin A is added at 0.3 μM as an internal positive control. After three days of treatment, micro-epidermises are fixed with a formalin solution 10% for 30 minutes, then permeabilized with 0.1% Triton. Several immunostainings are performed: actin (Acti-Stain 555, PHDH1, Cytoskeleton), nuclei (Hoechst, H3570, Invitrogen), and one biomarker of interest per well either anti-involucrin (HPA055211, Sigma), anti-filaggrin (HPA030189, Sigma) or anti-desmoglein-1 (HPA022128, Sigma). Antibodies are added overnight at 4° C. before staining with secondary antibody, anti-rabbit 488 (711-545-152, Jackson) for 2 hours at room temperature.
(§3) Images of each well are acquired with the Operetta HCS platform (Perkin Elmer, Waltham, MA, USA) using a ×10 objective in confocal mode in eight z-planes from 2 μm to 44 μm in steps of 6 μm in each of the 3 channels: actin, nuclei, and one biomarker of interest. The first step of the image analysis consists in detecting micro-epidermis structures on the first z-plane by segmenting the actin staining. Micro-epidermis structures are validated based on several area and roundness min and max criteria. Then, the area of each biomarker staining is measured inside the valid micro-epidermis masks through each z-plane. For all homogeneous biomarker staining, their intensity through the different planes is measured.
(§4) The actin network of each micro-epidermis is analyzed in each z-plane in order to determine the average 3D structure edges. The biomarker intensity is measured in each z-plane for each structure, and then averaged with the other results generated in the same well. Based on the data generated in the two previous steps, an average 3D reconstruction image is generated. It consists of a meshwork that delimits the structure edges, and a color scaled volume that corresponds to the biomarkers distribution and expression.
The effect of 8 oncology molecules, selected from first generation EGFRi and pan-kinase inhibitors which mostly target VEGFR and second and third generation therapies targeting main mutations relating to first generation treatment resistance, were assessed in vitro using a 3D micro-epidermis model. […] The drug impact was assessed by analysis of tissue size and keratinocyte proliferation using Ki-67 staining and keratinocyte differentiation using filaggrin, desmoglein-1 and involucrin staining.
Size of the epidermis and the expression of the protein junction desmoglein-1 (DSG1), involucrin (IVL) and filaggrin (FLG) was assessed by immunostaining and compared to untreated control. […]

filaggrin (FLG) = test: 3D micro-epidermis model (EpiScreen): filaggrin immunostaining; assay type: cell-based, human; conditions: for activation at 0.1 µM / activation at 1 µM / activation at 0.01 µM: Homo sapiens, 72 h; for FLG expression: Table 1 summary;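 on all read-outs here: human primary epidermal keratinocytes differentiated in high calcium into 3D micro-epidermises, compound-treated for three days, imaged by confocal high-content microscopy, filaggrin staining intensity quantified within actin-segmented structures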
desmoglein-1 (DSG1) [1] = test: 3D micro-epidermis model (EpiScreen): desmoglein-1 immunostaining; assay type: cell-based, human; conditions: for activation at 0.1 µM / activation at 0.01 µM: Homo sapiens, 72 h; for activation at 0.1 µM: 100 nM, Tox = toxic, read-out: DSG 100 nM; for activation at 0.1 µM / DSG 3 nM / DSG 30 nM / activation at 0.01 µM: supplementary data; for activation at 0.01 µM: 10 nM, read-out: DSG 10 nM; for DSG-1 expression: Table 1 summary
Protocol: as §1, §2, §3, §4
The effect of 8 oncology molecules, selected from first generation EGFRi and pan-kinase inhibitors which mostly target VEGFR and second and third generation therapies targeting main mutations relating to first generation treatment resistance, were assessed in vitro using a 3D micro-epidermis model. The drug incubation concentrations (3, 10, 30, 100 nM) were selected to reflect the clinically relevant (unbound) drug exposures (Table 2). The drug impact was assessed by analysis of tissue size and keratinocyte proliferation using Ki-67 staining and keratinocyte differentiation using filaggrin, desmoglein-1 and involucrin staining. […]

desmoglein-1 (DSG1) [2] = test: as above; assay type: cell-based, human; conditions: supplementary data, Tox = toxic; for activation at 1 µM: Homo sapiens, 72 h, read-out: DSG 1 μM
[3] = system: Human epidermal keratinocytes cells (HPEKs), 3D micro-epidermis; test: 3D micro-epidermis model (EpiScreen): epidermis size, toxicity, dose response, classification; assay type: cell-based; conditions: for Dose in response: variation of protein expression at 3, 10, 30 nM (EGFRi) or 3, 10, 30, 100 nM (VEGFRi); for Dose in response / Dose/response: markers in brackets; for impact on all measured parameters / epidermis development: micro-epidermis model; for Dose/response: supplementary table, per run (1st or 2nd Run); for effect on desmoglein-1, involucrin and filaggrin expression (dose dependence): 3, 10, 30 nM;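 on all read-outs here: keratinocytes on micropatterned discs in high-calcium medium, drug exposure for three days, then fixation and confocal high-content imaging of actin, nuclei and a marker, vehicle DMSO-matched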
[4] = cited from earlier work; for Cmax: maximal plasma concentration after a single daily-recommended dose, human; for Unbound fraction: unbound to plasma protein
[5] = supplementary data, two runs, Tox = toxic
[6] = 1 μM, supplementary data, two runs, Tox = toxic
[7] = 100 nM, supplementary data, two runs, Tox = toxic, read-out: FLG 100 nM
[8] = Table 3, 30 nM (EGFRi) or 100 nM (VEGFRi), 3 days, vs untreated control, superscript = significance footnote
[9] = Table 3, pro-proliferation or pro-differentiation
[10] = Table 1 summary of drug effect on epidermis
[11] = Table 1 summary, pro-differentiation / pro-proliferation

CC#CC(=O)N1CCC[C@H]1c1nc(-c2ccc(C(=O)Nc3ccccn3)cc2)c2c(N)nccn12 [Acalabrutinib]
IVL 10 μM (involucrin (IVL); [5]): 25% | activation at 0.1 µM (involucrin (IVL); [5]): 11% | activation at 1 µM (involucrin (IVL); [6]): 15% | FLG 10 μM (filaggrin (FLG); [5]): 33% | activation at 0.1 µM (filaggrin (FLG); [7]): 6% | activation at 1 µM (filaggrin (FLG); [6]): 15% | activation at 0.1 µM (desmoglein-1 (DSG1) [1]): -26% | DSG 10 μM (desmoglein-1 (DSG1) [2]): −7.50% | activation at 1 µM (desmoglein-1 (DSG1) [2]; 1 μM): -15%

CC(=O)Nc1ccc(O)cc1 [Acetaminophen]
IVL 10 μM (involucrin (IVL); [5]): 10% and 8% | Epidermis size [3, 8]: Unchanged^4 | Classification [3, 9]: Unchanged | Dose in response ([3]; Table 3): No | impact on all measured parameters / epidermis development [3]: no effect | Dose/response [3]: No

CNC(=O)c1ccc(N2C(=S)N(c3ccc(C#N)c(C(F)(F)F)c3)C(=O)C2(C)C)cc1F [Enzalutamide]
IVL 10 μM (involucrin (IVL); [5]): 2% | activation at 0.1 µM (involucrin (IVL); [5]): 9.3% | activation at 1 µM (involucrin (IVL); [6]): 6.2% | FLG 10 μM (filaggrin (FLG); [5]): −1% | activation at 0.1 µM (filaggrin (FLG); [7]): 2% | activation at 1 µM (filaggrin (FLG); [6]): 9.8% | Dose/response [3]: No | activation at 0.1 µM (desmoglein-1 (DSG1) [1]): -6% | DSG 10 μM (desmoglein-1 (DSG1) [2]): −12% | activation at 1 µM (desmoglein-1 (DSG1) [2]; 1 μM): -6%

COc1cc2ncnc(Nc3ccc(F)c(Cl)c3)c2cc1OCCCN1CCOCC1 [Gefitinib]
Cmax [4]: 356 nM | Unbound fraction [4]: 3.4%** | IVL 3 nM (involucrin (IVL); supplementary data): 23% | IVL 10 nM (involucrin (IVL); supplementary data, two runs): 8% | IVL 30 nM (involucrin (IVL); supplementary data): 23% | activation at 0.1 µM (involucrin (IVL); [5]): 29% | IVL expression (involucrin (IVL)): Increased | FLG 3 nM (filaggrin (FLG); supplementary data): 10% | FLG 30 nM (filaggrin (FLG); supplementary data): 5% | activation at 0.01 µM (filaggrin (FLG); read-out: FLG 10 nM, 10 nM, supplementary data, two runs): 3% | activation at 0.1 µM (filaggrin (FLG); read-out: FLG 100 nM, 100 nM, supplementary data, two runs, Tox = toxic): 28% | FLG expression (filaggrin (FLG)): Increased | Toxicity at 1 μM [3]: Yes | effect on desmoglein-1, involucrin and filaggrin expression (dose dependence) [3]: increased in a dose-dependent manner only the expression of desmoglein-1 | Epidermis size [3, 10]: Unchanged | Classification [3, 11]: Pro-differentiation | Epidermis size [3, 8]: Unchanged^4 | Classification [3, 9]: Pro- | Dose in response ([3]; Table 3): Yes | Dose/response [3]: Yes (DSG) | DSG 3 nM (desmoglein-1 (DSG1) [1]): −8% | DSG 30 nM (desmoglein-1 (DSG1) [1]): 15% | activation at 0.01 µM (desmoglein-1 (DSG1) [1]): 0% | activation at 0.1 µM (desmoglein-1 (DSG1) [1]): 41% | DSG-1 expression (desmoglein-1 (DSG1) [1]): Increased

Cc1ccnc2c1NC(=O)c1cccnc1N2C1CC1 [Nevirapine]
IVL 10 μM (involucrin (IVL); [5]): 20% | activation at 0.1 µM (involucrin (IVL); [5]): 17% | activation at 1 µM (involucrin (IVL); [6]): 15% | FLG 10 μM (filaggrin (FLG); [5]): 2% | activation at 0.1 µM (filaggrin (FLG); [7]): 7% | activation at 1 µM (filaggrin (FLG); [6]): 8% | Dose/response [3]: Yes (DSG) | activation at 0.1 µM (desmoglein-1 (DSG1) [1]): -8% | DSG 10 μM (desmoglein-1 (DSG1) [2]): −28% | activation at 1 µM (desmoglein-1 (DSG1) [2]; 1 μM): -15%

C=CC(=O)Nc1cc(Nc2nccc(-c3cn(C)c4ccccc34)n2)c(OC)cc1N(C)CCN(C)C [Osimertinib]
Cmax [4]: 627 nM | Unbound concentration ([4]; unbound plasma concentration, identified or calculated from Cmax and unbound fraction): 8.2764 nM | Unbound fraction [4]: 1.32%* | IVL 3 nM (involucrin (IVL); supplementary data): 6% | IVL 10 nM (involucrin (IVL); supplementary data, two runs): 8% | IVL 30 nM (involucrin (IVL); supplementary data): 7% | IVL 1 μM (involucrin (IVL); [6]): Tox | IVL 10 μM (involucrin (IVL); [5]): Tox | activation at 0.1 µM (involucrin (IVL); [5]): 20% | IVL expression (involucrin (IVL)): Unchanged | FLG 3 nM (filaggrin (FLG); supplementary data): −12% | FLG 30 nM (filaggrin (FLG); supplementary data): 2% | FLG 1 μM (filaggrin (FLG); [6]): Tox | FLG 10 μM (filaggrin (FLG); [5]): Tox | activation at 0.01 µM (filaggrin (FLG); 10 nM, supplementary data, two runs, read-out: FLG 10 nM): -6% | activation at 0.1 µM (filaggrin (FLG); [7]): 16% | FLG expression (filaggrin (FLG)): Unchanged | effect on desmoglein-1, involucrin and filaggrin expression (dose dependence) [3]: did not affect | Epidermis size [3, 10]: Unchanged | Classification [3, 11]: Unchanged | Epidermis size [3, 8]: Unchanged^4 | Classification [3, 9]: Unchanged | Dose in response ([3]; Table 3): No | impact on all measured parameters / epidermis development [3]: did not show any impact; also recorded: no impact | Dose/response [3]: No | DSG 3 nM (desmoglein-1 (DSG1) [1]): −3% | DSG 30 nM (desmoglein-1 (DSG1) [1]): 7% | activation at 0.01 µM (desmoglein-1 (DSG1) [1]): -7% | activation at 0.1 µM (desmoglein-1 (DSG1) [1]): 18% | DSG-1 expression (desmoglein-1 (DSG1) [1]): Unchanged | DSG 1 μM (desmoglein-1 (DSG1) [2]; 1 μM): Tox | DSG 10 μM (desmoglein-1 (DSG1) [2]): Tox

COc1cc2c(Nc3ccc(Br)cc3F)ncnc2cc1OCC1CCN(C)CC1 [Vandetanib]
activation at 0.1 µM (involucrin (IVL); [5]): 25% | activation at 1 µM (involucrin (IVL); [6]): 51% | activation at 0.1 µM (desmoglein-1 (DSG1) [1]): 5% | activation at 1 µM (desmoglein-1 (DSG1) [2]; 1 μM): 30%

CCCS(=O)(=O)Nc1ccc(F)c(C(=O)c2c[nH]c3ncc(-c4ccc(Cl)cc4)cc23)c1F [Vemurafenib]
IVL 10 μM (involucrin (IVL); [5]): −40% | activation at 0.1 µM (involucrin (IVL); [5]): -11% | activation at 1 µM (involucrin (IVL); [6]): -24% | FLG 10 μM (filaggrin (FLG); [5]): 126% | activation at 0.1 µM (filaggrin (FLG); [7]): 23% | activation at 1 µM (filaggrin (FLG); [6]): 65% | activation at 0.1 µM (desmoglein-1 (DSG1) [1]): -26% | DSG 10 μM (desmoglein-1 (DSG1) [2]): −58% | activation at 1 µM (desmoglein-1 (DSG1) [2]; 1 μM): -33%
